{
  "source": "paper PMC6858497",
  "about": "(The Journal of physiology, 2019)",
  "key": {"GluN1–1a/2B": {"biological_target": "GluN1–1a/2B (Rattus norvegicus, UniProt P35439+Q00960)", "sequence (Q00960 27-1482, other chains not shown)": "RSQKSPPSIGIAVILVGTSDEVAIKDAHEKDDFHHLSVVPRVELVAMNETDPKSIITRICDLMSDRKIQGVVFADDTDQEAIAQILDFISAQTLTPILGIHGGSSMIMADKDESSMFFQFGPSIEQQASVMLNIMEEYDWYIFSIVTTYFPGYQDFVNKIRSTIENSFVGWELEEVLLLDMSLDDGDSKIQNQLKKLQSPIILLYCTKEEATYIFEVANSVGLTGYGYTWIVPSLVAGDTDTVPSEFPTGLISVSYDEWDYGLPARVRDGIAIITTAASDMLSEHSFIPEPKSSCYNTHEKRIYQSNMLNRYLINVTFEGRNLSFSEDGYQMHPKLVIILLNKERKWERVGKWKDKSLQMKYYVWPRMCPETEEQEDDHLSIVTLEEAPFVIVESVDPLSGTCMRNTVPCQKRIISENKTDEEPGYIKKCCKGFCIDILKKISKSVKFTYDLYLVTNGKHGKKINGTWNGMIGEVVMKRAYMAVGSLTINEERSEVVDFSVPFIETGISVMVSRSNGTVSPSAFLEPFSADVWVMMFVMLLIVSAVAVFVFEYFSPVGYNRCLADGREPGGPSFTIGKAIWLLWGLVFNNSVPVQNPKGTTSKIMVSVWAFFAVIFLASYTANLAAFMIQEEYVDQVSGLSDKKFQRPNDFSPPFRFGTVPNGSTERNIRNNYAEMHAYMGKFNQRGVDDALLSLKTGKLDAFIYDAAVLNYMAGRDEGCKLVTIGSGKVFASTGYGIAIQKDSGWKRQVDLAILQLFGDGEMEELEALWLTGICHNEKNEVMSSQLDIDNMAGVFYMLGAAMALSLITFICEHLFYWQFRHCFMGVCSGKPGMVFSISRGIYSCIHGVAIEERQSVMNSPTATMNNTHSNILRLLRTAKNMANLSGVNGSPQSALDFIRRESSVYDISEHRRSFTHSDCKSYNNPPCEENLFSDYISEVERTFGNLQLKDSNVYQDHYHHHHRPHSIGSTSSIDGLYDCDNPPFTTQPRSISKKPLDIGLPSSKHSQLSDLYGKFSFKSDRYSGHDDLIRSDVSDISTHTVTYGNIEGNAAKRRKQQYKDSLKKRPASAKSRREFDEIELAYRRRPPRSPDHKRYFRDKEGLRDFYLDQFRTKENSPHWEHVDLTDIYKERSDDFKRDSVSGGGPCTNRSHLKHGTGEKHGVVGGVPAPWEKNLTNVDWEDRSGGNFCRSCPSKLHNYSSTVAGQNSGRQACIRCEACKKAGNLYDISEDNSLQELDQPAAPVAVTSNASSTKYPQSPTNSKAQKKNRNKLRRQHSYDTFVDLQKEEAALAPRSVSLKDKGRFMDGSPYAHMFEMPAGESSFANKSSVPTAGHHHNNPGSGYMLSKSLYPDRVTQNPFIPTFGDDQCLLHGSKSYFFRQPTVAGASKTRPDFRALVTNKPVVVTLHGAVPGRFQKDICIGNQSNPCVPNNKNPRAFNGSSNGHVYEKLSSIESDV", "assay": "Two-electrode voltage-clamp recordings, Xenopus oocytes", "format": "cell-based", "conditions": "for Spermine modulation (% control): 100 μM spermine, −20 mV"}, "GluN1–1a/2BC1/2DC2": {"biological_target": "GluN1–1a/2BC1/2DC2 (Rattus norvegicus, UniProt P35439+Q00959+Q00960+Q62645, A876H/F846L/G856D/H848F/K857R/M851T/M860L/Q845K/R869K/V861L/V866F)", "assay": "Two-electrode voltage-clamp recordings, Xenopus oocytes", "format": "cell-based", "conditions": "for Spermine modulation (% control): 100 μM spermine, −20 mV"}, "GluN1–1b/2B": {"biological_target": "GluN1–1b/2B (Rattus norvegicus, UniProt P35439+Q00960)", "assay": "Two-electrode voltage-clamp recordings, Xenopus oocytes", "format": "cell-based", "conditions": "isoform 1b"}, "GluN1–1b/2BC1/2DC2": {"biological_target": "GluN1–1b/2BC1/2DC2 (Rattus norvegicus, UniProt P35439+Q00959+Q00960+Q62645, A876H/F846L/G856D/H848F/K857R/M851T/M860L/Q845K/R869K/V861L/V866F)", "assay": "Two-electrode voltage-clamp recordings, Xenopus oocytes", "format": "cell-based", "conditions": "isoform 1b"}, "[1]": {"tested_on": "NMDA receptors in cerebellar Golgi cells (thought to be mainly GluN1/2B/2D)", "conditions": "single-channel recordings, outside-out patches; ref Brickley et al., 2003; cited from earlier work"}, "GluN1–1a/2D": {"biological_target": "GluN1–1a/2D (Rattus norvegicus, UniProt P35439+Q62645)", "sequence (Q62645 28-1323, other chains not shown)": "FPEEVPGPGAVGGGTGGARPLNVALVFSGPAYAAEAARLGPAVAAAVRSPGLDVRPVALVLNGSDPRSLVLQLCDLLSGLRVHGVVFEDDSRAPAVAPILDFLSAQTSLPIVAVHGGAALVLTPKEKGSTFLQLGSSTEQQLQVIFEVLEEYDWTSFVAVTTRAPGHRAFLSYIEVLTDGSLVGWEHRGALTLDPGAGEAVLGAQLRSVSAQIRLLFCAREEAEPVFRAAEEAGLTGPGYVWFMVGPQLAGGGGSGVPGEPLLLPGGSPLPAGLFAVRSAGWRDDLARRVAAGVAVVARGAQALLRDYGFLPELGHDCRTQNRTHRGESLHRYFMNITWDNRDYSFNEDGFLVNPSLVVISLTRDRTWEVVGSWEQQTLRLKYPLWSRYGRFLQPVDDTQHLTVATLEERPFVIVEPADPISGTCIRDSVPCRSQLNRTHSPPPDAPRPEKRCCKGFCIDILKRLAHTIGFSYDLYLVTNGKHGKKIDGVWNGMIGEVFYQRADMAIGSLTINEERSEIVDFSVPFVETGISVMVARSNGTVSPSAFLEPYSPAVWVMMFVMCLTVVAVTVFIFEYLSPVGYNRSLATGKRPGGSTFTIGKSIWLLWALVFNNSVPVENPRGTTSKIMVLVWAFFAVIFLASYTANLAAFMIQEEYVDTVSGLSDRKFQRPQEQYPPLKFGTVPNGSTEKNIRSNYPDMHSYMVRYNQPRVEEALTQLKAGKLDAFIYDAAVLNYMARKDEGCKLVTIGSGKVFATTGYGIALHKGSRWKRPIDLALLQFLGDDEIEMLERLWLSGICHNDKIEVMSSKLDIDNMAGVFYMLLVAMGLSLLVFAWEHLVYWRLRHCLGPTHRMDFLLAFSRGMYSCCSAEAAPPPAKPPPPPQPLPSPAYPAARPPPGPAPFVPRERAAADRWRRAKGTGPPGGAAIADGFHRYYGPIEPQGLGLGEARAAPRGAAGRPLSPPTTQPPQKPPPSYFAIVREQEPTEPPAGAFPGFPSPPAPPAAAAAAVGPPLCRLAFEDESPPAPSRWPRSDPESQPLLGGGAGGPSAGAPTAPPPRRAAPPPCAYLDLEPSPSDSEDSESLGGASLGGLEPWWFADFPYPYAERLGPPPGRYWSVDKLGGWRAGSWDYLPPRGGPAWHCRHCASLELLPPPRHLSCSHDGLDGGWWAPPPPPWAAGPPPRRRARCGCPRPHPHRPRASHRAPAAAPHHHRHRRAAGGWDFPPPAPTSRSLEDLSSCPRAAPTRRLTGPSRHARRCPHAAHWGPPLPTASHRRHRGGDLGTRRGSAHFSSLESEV", "assay": "Two-electrode voltage-clamp recordings, Xenopus oocytes", "format": "cell-based", "conditions": "for Spermine modulation (% control): 100 μM spermine, −20 mV"}, "[2]": {"tested_on": "NMDAR-EPSCs in hippocampal CA1 pyramidal cells", "assay": "Whole-cell patch-clamp of NMDAR-EPSCs in acute hippocampal slices", "format": "cell-based, mouse", "conditions": "100 μM; +40 mV; P21–28 slices"}, "[3]": {"tested_on": "NMDAR-EPSCs in hippocampal interneurons (CA1 s.r./s.l.m.)", "assay": "Whole-cell patch-clamp of NMDAR-EPSCs in acute hippocampal slices", "format": "cell-based, mouse"}, "GluN1–1a/2A": {"biological_target": "GluN1–1a/2A (Rattus norvegicus, UniProt P35439+Q00959)", "sequence (Q00959 23-1464, other chains not shown)": "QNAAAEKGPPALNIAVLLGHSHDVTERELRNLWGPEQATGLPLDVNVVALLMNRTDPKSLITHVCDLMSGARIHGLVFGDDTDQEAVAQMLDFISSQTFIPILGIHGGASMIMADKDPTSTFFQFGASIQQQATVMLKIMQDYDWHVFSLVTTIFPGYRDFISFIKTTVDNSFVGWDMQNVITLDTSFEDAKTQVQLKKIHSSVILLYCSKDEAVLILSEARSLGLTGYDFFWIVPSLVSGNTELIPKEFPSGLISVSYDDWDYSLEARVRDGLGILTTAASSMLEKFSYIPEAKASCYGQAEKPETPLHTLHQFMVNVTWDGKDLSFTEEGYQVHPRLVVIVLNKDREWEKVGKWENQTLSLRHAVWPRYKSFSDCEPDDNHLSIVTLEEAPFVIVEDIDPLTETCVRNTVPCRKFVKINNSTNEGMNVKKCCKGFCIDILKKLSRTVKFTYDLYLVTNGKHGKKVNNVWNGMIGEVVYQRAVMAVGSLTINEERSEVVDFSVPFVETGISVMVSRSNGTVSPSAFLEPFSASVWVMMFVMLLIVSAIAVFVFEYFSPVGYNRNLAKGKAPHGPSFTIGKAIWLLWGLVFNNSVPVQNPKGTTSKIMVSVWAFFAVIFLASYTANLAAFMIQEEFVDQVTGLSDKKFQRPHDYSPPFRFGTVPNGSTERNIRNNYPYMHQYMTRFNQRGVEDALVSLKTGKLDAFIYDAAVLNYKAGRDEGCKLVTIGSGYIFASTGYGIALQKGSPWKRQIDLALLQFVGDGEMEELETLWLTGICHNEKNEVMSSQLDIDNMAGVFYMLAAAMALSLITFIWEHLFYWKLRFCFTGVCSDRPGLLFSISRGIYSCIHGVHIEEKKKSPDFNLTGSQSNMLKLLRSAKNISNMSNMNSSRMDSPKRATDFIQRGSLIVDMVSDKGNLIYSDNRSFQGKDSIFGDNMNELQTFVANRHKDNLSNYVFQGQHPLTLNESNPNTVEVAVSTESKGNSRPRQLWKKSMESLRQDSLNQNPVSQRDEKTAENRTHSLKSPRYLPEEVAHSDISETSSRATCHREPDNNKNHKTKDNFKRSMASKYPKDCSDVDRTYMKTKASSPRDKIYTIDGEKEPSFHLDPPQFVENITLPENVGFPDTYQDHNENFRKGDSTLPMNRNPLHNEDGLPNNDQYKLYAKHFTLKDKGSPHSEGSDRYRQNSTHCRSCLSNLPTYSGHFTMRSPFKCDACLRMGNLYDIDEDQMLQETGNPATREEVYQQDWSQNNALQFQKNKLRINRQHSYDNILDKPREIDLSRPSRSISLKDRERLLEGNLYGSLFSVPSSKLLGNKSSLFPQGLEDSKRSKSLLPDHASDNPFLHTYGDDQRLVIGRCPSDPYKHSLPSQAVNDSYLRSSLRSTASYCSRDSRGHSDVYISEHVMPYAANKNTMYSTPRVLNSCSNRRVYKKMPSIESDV", "conditions": "100 μM spermine, −20 mV"}, "GluN1–1a/2AC1/2BC2": {"biological_target": "GluN1–1a/2AC1/2BC2 (Rattus norvegicus, UniProt P35439+Q00959+Q00960, A876H/F846L/G856D/H848F/K857R/M851T/M860L/Q845K/V861L)", "conditions": "100 μM spermine, −20 mV"}, "[4]": {"conditions": "at 100 μM, pH 7.4, holding potential −20 mV, isoform 1a"}},
  "note": "Values joined by “and” are separate entries in the source; they are usually repeats but may differ in a detail not shown here. Equal values may be shown once. Read-outs that look alike come from different tables or passages of the source.",
  "data": [
    {"smiles": "CC(C(O)c1ccc(O)cc1)N1CCC(Cc2ccccc2)CC1", "note": "(centres unmarked) [ifenprodil]", "values": [
      {"measurement": "nH (Hill coefficient)", "setting": "GluN1–1a/2B; inhibition, isoform 1a", "value": 1.1},
      {"measurement": "maximal inhibition", "setting": "GluN1–1a/2B; isoform 1a", "value": "~ 95%"},
      {"measurement": "nH (Hill coefficient)", "setting": "GluN1–1a/2BC1/2DC2; inhibition, isoform 1a", "value": 1.1},
      {"measurement": "maximal inhibition", "setting": "GluN1–1a/2BC1/2DC2; isoform 1a", "value": "~ 65%"},
      {"measurement": "nH (Hill coefficient)", "setting": "GluN1–1b/2B; inhibition", "value": 1.8},
      {"measurement": "maximal inhibition", "setting": "GluN1–1b/2B", "value": 88, "unit": "%"},
      {"measurement": "nH (Hill coefficient)", "setting": "GluN1–1b/2BC1/2DC2; inhibition", "value": 1.1},
      {"measurement": "maximal inhibition", "setting": "GluN1–1b/2BC1/2DC2", "value": 69, "unit": "%"},
      {"measurement": "IC50", "setting": "[1]", "value": 129, "unit": "nM"},
      {"measurement": "maximal inhibition", "setting": "[1]", "value": 71.5, "unit": "%"}
    ]},
    {"smiles": "NCCCNCCCCNCCCN", "note": "[spermine]", "values": [
      {"measurement": "Spermine modulation (% control)", "setting": "GluN1–1a/2B; pH 6.8", "value": "585 ± 29", "unit": "% control"},
      {"measurement": "Spermine modulation (% control)", "setting": "GluN1–1a/2B; pH 7.4", "value": "211 ± 6", "unit": "% control"},
      {"measurement": "Spermine modulation (% control)", "setting": "GluN1–1a/2B; pH 7.4, listed as Spermine", "value": 211, "unit": "% control"},
      {"measurement": "Relative Imax", "setting": "GluN1–1a/2B; [4]", "value": "211 ± 6", "unit": "%"},
      {"measurement": "Spermine modulation (% control)", "setting": "GluN1–1a/2BC1/2DC2; pH 6.8", "value": "233 ± 10", "unit": "% control"},
      {"measurement": "Spermine modulation (% control)", "setting": "GluN1–1a/2BC1/2DC2; pH 7.4", "value": "150 ± 2", "unit": "% control"},
      {"measurement": "Spermine modulation (% control)", "setting": "GluN1–1a/2BC1/2DC2; pH 7.4, listed as Spermine", "value": 150, "unit": "% control"},
      {"measurement": "Relative Imax", "setting": "GluN1–1a/2BC1/2DC2; [4]", "value": "150 ± 2", "unit": "%"},
      {"measurement": "Spermine modulation (% control)", "setting": "GluN1–1a/2D; pH 6.8", "value": "82 ± 1", "unit": "% control"},
      {"measurement": "Spermine modulation (% control)", "setting": "GluN1–1a/2D; pH 7.4", "value": "71 ± 0.4", "unit": "% control"},
      {"measurement": "Spermine modulation (% control)", "setting": "GluN1–1a/2D; pH 7.4, listed as Spermine", "value": 71, "unit": "% control"},
      {"measurement": "Relative Imax", "setting": "GluN1–1a/2D; [4]", "value": "71 ± 0.4", "unit": "%"},
      {"measurement": "NMDAR-EPSC peak amplitude, % of baseline", "setting": "[2]", "value": "95 ± 5 % of baseline"},
      {"measurement": "NMDAR-EPSC peak amplitude, % of baseline", "setting": "[3]; 100 μM, +40 mV, P21–28 slices", "value": "137 ± 13 % of baseline"},
      {"measurement": "effect on EPSC decay time", "setting": "[3]; treatment versus baseline, paired t test, 10 μM (spermine 100 μM)", "value": "unchanged"},
      {"measurement": "Spermine modulation (% control)", "setting": "GluN1–1a/2A; pH 6.8", "value": "79 ± 1", "unit": "% control"},
      {"measurement": "Spermine modulation (% control)", "setting": "GluN1–1a/2A; pH 7.4", "value": "72 % control and 72 ± 1 % control"},
      {"measurement": "Spermine modulation (% control)", "setting": "GluN1–1a/2AC1/2BC2; pH 6.8", "value": "95 ± 0.1", "unit": "% control"},
      {"measurement": "Spermine modulation (% control)", "setting": "GluN1–1a/2AC1/2BC2; pH 7.4", "value": "80 ± 1", "unit": "% control"}
    ]}
  ]
}
